Measurements from ChEMBL document CHEMBL4507268 (2021).

Legend:
[1] = molecular target: Ribosomal protein S6 kinase alpha-5 (Homo sapiens) (UniProt O75582); conditions: Compound concentration 1000.0 nM
[2] = molecular target: Mitogen-activated protein kinase kinase kinase 4 (Homo sapiens) (UniProt Q9Y6R4); conditions: Compound concentration 1000.0 nM
[3] = molecular target: Cyclin-dependent kinase 9 (Homo sapiens) (UniProt P50750); conditions: Compound concentration 1000.0 nM
[4] = molecular target: Ephrin type-A receptor 7 (Homo sapiens) (UniProt Q15375); conditions: Compound concentration 1000.0 nM
[5] = molecular target: Serine/threonine-protein kinase Nek5 (Homo sapiens) (UniProt Q6P3R8); conditions: Compound concentration 1000.0 nM
[6] = molecular target: T1, Phosphatidylinositol 3-kinase C2 domain-containing subunit gamma (Homo sapiens) (UniProt O75747); conditions: Compound concentration 1000.0 nM
T1 sequence (whole entry): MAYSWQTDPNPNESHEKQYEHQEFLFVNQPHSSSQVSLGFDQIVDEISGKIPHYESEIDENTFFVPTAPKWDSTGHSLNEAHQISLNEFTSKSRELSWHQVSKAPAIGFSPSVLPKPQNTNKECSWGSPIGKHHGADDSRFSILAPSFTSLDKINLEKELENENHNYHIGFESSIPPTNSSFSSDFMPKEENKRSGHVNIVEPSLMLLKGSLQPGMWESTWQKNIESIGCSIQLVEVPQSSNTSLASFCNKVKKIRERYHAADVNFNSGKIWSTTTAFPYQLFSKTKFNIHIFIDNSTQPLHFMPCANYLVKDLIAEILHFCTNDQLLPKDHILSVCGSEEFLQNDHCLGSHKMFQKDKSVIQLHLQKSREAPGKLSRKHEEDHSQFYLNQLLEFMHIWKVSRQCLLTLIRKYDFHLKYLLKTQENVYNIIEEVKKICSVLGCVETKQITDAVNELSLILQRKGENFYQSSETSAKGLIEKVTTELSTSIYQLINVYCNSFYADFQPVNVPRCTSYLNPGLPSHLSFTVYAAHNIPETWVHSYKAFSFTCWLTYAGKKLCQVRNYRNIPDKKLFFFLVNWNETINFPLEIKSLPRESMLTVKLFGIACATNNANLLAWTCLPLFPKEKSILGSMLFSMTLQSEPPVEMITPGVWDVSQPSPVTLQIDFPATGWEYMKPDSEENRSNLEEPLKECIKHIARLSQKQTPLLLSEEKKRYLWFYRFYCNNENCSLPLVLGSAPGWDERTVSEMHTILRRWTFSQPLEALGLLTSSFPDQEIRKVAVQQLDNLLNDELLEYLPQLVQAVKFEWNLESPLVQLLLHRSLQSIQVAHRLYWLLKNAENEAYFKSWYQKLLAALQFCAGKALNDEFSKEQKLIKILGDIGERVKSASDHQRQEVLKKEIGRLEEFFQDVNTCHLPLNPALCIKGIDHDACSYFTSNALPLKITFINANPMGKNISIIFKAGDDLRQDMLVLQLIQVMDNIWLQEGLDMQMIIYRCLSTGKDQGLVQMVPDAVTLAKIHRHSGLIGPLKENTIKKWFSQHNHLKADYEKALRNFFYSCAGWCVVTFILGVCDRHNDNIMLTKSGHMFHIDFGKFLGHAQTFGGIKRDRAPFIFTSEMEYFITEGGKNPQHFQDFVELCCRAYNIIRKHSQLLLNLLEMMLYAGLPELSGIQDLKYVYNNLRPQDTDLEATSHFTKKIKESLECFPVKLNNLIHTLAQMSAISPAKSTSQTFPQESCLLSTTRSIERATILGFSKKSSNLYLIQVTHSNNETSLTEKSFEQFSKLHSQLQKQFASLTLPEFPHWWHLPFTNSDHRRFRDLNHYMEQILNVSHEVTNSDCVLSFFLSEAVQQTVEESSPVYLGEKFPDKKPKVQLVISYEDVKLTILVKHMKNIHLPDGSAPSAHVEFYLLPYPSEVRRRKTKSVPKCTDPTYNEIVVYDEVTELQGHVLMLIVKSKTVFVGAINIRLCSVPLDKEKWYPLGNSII

[7] = molecular target: 5'-AMP-activated protein kinase catalytic subunit alpha-2 (Homo sapiens) (UniProt P54646); conditions: Compound concentration 1000.0 nM
[8] = molecular target: Ribosomal protein S6 kinase alpha-6 (Homo sapiens) (UniProt Q9UK32); conditions: Compound concentration 1000.0 nM
[9] = molecular target: T2, Activin receptor type-1 (Homo sapiens) (UniProt Q04771); conditions: Compound concentration 1000.0 nM
T2 sequence (whole entry): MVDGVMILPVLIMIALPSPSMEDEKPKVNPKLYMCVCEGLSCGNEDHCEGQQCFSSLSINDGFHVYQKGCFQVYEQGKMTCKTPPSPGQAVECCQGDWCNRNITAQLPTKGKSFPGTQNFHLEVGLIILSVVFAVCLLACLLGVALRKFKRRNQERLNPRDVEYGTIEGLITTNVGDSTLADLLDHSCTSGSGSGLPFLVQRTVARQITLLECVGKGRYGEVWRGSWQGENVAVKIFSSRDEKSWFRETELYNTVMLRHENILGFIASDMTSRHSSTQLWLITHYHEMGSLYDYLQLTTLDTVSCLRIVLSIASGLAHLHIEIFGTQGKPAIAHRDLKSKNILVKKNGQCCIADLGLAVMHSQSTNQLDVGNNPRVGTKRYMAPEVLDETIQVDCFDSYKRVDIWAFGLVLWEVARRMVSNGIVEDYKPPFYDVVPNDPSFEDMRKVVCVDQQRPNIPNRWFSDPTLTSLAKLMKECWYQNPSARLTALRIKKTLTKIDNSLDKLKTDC

[10] = molecular target: GABA-A receptor; anion channel (Rattus norvegicus) (UniProt O09028+P15431+P18506+P18508+P19969+P20236+P23574+P23576+P28471+P28473+P30191+P62813+P63079+P63138+Q91ZM7+Q9ES14); conditions: Compound concentration 10.0 uM
[11] = molecular target: Tyrosine-protein kinase Fes/Fps (Homo sapiens) (UniProt P07332); conditions: Compound concentration 1000.0 nM
[12] = molecular target: Citron Rho-interacting kinase (Homo sapiens) (UniProt O14578); conditions: Compound concentration 1000.0 nM
[13] = molecular target: Proto-oncogene tyrosine-protein kinase receptor Ret (Homo sapiens) (UniProt P07949); conditions: Compound concentration 1000.0 nM
[14] = molecular target: Cyclin-dependent kinase 7 (Homo sapiens) (UniProt P50613); conditions: Compound concentration 1000.0 nM
[15] = molecular target: Myosin light chain kinase family member 4 (Homo sapiens) (UniProt Q86YV6); conditions: Compound concentration 1000.0 nM
[16] = tested on: Proto-oncogene tyrosine-protein kinase receptor Ret (Homo sapiens), P07949 [M918T]; conditions: Compound concentration 1000.0 nM
[17] = molecular target: Protein kinase C delta type (Homo sapiens) (UniProt Q05655); conditions: Compound concentration 1000.0 nM

Chain of Proto-oncogene tyrosine-protein kinase receptor Ret (Homo sapiens) (P07949 whole entry): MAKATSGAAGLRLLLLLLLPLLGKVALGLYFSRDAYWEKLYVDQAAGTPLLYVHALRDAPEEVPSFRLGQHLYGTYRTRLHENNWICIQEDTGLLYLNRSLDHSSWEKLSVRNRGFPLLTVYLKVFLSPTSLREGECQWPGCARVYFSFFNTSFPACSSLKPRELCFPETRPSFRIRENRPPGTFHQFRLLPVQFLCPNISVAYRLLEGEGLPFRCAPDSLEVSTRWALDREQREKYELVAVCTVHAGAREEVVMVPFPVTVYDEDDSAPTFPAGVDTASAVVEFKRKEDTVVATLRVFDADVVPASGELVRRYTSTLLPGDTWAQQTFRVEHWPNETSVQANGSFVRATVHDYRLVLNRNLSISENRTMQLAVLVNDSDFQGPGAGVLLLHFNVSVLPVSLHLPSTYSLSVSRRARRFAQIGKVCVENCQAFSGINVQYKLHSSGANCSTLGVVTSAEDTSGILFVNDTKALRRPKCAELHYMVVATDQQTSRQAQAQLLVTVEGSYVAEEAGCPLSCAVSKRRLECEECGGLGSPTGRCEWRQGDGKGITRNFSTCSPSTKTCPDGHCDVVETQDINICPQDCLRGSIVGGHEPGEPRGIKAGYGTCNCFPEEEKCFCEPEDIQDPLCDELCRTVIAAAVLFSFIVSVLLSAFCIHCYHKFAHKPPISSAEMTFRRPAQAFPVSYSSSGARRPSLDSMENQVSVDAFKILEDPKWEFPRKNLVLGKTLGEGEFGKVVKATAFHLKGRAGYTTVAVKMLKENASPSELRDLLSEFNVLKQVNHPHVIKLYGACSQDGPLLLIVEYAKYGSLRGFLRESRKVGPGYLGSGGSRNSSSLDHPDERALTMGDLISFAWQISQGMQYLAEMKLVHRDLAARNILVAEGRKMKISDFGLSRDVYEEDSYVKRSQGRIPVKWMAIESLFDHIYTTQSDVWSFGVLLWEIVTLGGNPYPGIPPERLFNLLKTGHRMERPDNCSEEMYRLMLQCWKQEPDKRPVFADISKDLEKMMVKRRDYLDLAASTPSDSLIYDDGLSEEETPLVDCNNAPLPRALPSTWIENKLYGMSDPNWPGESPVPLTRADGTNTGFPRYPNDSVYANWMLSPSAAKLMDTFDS
Chain of 5'-AMP-activated protein kinase catalytic subunit alpha-2 (Homo sapiens) (P54646 whole entry, looked up): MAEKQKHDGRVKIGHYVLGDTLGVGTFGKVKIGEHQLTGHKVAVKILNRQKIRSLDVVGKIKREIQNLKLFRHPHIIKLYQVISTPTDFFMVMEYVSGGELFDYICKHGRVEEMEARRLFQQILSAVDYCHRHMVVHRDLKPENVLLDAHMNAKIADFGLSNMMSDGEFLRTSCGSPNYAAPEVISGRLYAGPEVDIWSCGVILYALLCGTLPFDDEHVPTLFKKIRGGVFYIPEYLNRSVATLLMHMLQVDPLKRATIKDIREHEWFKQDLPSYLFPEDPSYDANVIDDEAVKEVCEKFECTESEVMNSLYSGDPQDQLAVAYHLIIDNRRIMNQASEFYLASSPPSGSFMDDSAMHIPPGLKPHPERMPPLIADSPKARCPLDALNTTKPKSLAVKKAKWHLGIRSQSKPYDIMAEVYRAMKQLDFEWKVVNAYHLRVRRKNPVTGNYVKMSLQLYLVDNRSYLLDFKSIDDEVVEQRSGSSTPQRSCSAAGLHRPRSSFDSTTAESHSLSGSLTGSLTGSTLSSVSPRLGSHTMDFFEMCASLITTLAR
Chain of Cyclin-dependent kinase 7 (Homo sapiens) (P50613 whole entry): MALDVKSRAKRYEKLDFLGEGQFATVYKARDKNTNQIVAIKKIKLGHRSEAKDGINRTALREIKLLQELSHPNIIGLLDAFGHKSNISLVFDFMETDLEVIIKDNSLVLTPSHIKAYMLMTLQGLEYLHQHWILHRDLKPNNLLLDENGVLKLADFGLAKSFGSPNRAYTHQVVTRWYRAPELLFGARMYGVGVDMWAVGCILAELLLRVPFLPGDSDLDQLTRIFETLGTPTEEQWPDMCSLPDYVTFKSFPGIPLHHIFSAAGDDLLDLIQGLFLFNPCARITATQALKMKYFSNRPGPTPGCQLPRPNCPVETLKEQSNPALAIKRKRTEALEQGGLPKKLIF
Chain of Tyrosine-protein kinase Fes/Fps (Homo sapiens) (P07332 whole entry): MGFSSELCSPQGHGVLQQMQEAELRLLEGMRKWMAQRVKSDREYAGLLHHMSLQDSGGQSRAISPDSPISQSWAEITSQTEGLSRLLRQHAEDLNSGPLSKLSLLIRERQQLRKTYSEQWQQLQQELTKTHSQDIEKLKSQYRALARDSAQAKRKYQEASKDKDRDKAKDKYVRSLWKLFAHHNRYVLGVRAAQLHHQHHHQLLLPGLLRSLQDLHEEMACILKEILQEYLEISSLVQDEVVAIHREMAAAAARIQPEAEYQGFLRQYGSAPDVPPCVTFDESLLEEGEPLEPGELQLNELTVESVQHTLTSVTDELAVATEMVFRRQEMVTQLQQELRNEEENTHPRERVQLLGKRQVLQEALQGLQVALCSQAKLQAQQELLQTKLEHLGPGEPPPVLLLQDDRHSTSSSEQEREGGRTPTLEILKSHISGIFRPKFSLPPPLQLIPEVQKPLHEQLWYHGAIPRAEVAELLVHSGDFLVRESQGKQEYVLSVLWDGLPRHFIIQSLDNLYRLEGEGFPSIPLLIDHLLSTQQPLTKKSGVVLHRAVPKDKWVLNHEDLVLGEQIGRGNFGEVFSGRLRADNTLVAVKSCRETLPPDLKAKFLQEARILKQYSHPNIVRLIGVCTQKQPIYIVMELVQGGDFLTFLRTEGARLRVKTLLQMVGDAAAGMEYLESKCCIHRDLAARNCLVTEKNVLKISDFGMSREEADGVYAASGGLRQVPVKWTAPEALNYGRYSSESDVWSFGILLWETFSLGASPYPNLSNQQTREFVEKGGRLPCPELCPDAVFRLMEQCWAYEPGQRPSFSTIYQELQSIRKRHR
Chain of Proto-oncogene tyrosine-protein kinase receptor Ret (Homo sapiens), P07949 [M918T] (P07949 whole entry M918T): as the sequence (P07949 whole entry) above, with M918T counted along it
Chain of Ephrin type-A receptor 7 (Homo sapiens) (Q15375 28-998 limits assumed): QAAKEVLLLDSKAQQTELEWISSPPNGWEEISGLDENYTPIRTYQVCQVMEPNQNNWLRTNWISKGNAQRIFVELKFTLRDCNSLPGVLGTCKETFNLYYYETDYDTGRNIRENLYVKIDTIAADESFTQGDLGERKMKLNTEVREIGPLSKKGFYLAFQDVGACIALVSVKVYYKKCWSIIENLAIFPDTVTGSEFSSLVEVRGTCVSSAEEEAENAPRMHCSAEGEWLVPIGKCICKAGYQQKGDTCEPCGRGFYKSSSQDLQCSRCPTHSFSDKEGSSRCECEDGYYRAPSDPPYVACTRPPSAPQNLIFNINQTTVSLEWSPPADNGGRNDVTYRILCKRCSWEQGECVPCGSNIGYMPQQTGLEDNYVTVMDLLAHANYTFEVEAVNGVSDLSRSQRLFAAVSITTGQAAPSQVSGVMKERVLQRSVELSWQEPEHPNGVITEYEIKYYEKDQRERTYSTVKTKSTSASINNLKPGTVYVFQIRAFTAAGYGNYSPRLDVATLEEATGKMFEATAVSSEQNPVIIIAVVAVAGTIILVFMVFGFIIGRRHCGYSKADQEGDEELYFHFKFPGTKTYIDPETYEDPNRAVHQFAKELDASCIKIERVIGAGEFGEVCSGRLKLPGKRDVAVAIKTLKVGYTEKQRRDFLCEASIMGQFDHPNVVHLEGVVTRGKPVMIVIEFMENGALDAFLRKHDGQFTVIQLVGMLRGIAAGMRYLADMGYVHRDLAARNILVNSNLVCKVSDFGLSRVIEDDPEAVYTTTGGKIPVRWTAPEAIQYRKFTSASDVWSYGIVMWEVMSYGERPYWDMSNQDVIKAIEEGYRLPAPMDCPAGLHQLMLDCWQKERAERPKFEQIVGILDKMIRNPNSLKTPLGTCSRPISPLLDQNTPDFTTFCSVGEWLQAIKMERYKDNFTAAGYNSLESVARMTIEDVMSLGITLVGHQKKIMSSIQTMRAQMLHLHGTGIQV
Chain of Ribosomal protein S6 kinase alpha-6 (Homo sapiens) (Q9UK32 whole entry): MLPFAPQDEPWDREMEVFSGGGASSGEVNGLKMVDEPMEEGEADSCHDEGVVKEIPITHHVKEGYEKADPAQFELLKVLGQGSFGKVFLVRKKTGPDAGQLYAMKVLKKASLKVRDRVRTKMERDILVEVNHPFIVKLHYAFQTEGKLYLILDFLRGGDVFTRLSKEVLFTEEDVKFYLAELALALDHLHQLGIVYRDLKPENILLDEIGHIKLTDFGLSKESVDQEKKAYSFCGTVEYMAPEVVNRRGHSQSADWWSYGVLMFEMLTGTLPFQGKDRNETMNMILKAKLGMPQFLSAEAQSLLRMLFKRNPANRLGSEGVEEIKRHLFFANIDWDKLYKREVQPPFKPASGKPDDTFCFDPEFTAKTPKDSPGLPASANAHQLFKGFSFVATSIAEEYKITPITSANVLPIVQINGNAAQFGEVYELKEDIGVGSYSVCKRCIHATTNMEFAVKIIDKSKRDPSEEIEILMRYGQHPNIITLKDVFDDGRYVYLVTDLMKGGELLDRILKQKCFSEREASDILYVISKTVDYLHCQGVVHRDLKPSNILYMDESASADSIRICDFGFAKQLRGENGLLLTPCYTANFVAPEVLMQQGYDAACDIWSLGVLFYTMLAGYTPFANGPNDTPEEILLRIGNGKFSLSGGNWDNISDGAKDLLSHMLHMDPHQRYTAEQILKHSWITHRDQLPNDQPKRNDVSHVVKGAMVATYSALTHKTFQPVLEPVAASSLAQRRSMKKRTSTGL
Chain of Myosin light chain kinase family member 4 (Homo sapiens) (Q86YV6 whole entry): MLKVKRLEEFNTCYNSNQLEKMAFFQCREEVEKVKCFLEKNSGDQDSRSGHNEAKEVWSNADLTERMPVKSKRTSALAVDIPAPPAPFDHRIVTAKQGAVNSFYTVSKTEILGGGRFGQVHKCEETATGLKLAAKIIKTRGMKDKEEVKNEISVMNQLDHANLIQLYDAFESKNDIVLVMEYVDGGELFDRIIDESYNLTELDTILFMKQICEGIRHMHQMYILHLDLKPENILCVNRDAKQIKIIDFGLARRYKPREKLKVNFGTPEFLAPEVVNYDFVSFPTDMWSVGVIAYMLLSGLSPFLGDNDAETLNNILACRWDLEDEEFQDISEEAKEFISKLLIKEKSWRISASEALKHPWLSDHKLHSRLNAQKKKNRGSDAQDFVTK

Cc1nc(C2CCN(C(=O)c3ccc(OC(F)(F)F)cc3N)CC2)c2ncc(N3CCN(C)CC3)cc2n1 [BAY-693]
inactive: residual activity [1] 90% | residual activity [2] 100% | residual activity [3] 79% | residual activity [4] 92% | residual activity [5] 100% | residual activity [6] 100% | residual activity [7] 100% | residual activity [8] 100% | residual activity [9] 100% | inhibition [10] 15% | residual activity [11] 96% | residual activity [12] 100% | residual activity [13] 100% | residual activity [14] 100% | residual activity [15] 100% | residual activity [16] 86% | residual activity [17] 100%

CN1CCN(c2cnc3c(C4CCN(C(=O)c5ccc(OC(F)(F)F)cc5N)CC4)ncnc3c2)CC1 [BAY-885]
inactive: residual activity [1] 96% | residual activity [2] 95% | residual activity [3] 100% | residual activity [4] 100% | residual activity [5] 100% | residual activity [6] 100% | residual activity [7] 100% | residual activity [8] 100% | residual activity [9] 100% | inhibition [10] 21.8% | residual activity [11] 100% | residual activity [12] 100% | residual activity [13] 100% | residual activity [14] 89% | residual activity [15] 100% | residual activity [16] 100% | residual activity [17] 100%
